Test results from patent US11104619B2, “Mixture for treating fertilizers containing urea” (EuroChem Agro GmbH, priority 2015, dated 2021).
Where two headings read alike, the source gives them in different places.

Columns and labels:
nitrification [1] = assay: Soil incubation trial: cumulative laughing gas (N2O-N) emission; conditions: for N2O—N cumulative / N2O—N cumulative, % of appl.: 77 mg N applied; for N2O—N cumulative, % of appl.: cumulative over 28 days
nitrification [2] = assay: Soil incubation trial: recovery of applied urea N as ammonium; conditions: for percentage recovery in the form of ammonium, % of applied urea (13 mg N): 28 days after application, Filder loam pH 6.8, 20° C., 200 kg urea N/ha, label gives UI/NI fraction of recommended rate (0.6 g NBPT, 3.6 g DMPSA per kg urea)
Description: % of applied urea (13 mg N)
A determination was carried out 28 days after application of the urea, with the percentage recovery in the form of ammonium being reported.

nitrification [3] = assay: Soil incubation trial: nitrate formed from applied urea N; conditions: for Nitrate, % of the urea applied (13 mg N): Filder loam, 20° C., label gives UI/NI fraction of recommended rate
Description: % of the urea applied (13 mg N)

urease = conditions: for Ammonia emission, % of the urea applied (77 mg N): Filder loam, 20° C., label gives UI/NI fraction of recommended rate
Description: Screening trials were conducted to evaluate the effect of DMPSA and NBPT in the inhibition of urease and inhibition of nitrification, and to find suitable quantities for use. Serving for this purpose was a two-factorial trial design including an unfertilized control sample. For the urease inhibitor NBPT and for the nitrification inhibitor DMPSA, in each case 0%, 33%, 66% and 100% of the application rates recommended for the individual compounds when used alone were used (in this example, 0.6 g of NBPT per kg of urea and, respectively, 3.6 g of DMPSA per kg of urea), giving 16 trials (0%-0% to 100%-100%), in addition to the unfertilized control sample.
Urea fertilizer was delivered in an amount of 200 kg nitrogen per ha, corresponding to 0.51 mg of urea nitrogen per g of soil. The soil used was Filder loam with a pH of 6.8. The incubation trials were carried out at 20° C. For the investigation of trace gases, air supply was passed first through a gas sample, then through a 250 ml capacity glass bottle containing 150 g of soil, subsequently through a gas sample for the outgoing air and through an acid trap, in order, for example, to determine amounts of ammonia. For the measurement of nitrogen, about 20 g of soil were incubated; for the measurement of urea, about 5 g of soil.

Cc1cn(C(CC(=O)O)C(=O)O)nc1C (stereo not drawn) [DMPSA, 2-(N-3,4-dimethylpyrazole)succinic acid]
N2O—N cumulative (nitrification [1]; 0 days after appl., 150 g soil): 0 μg N2O—N Bottle^1
emissions of laughing gas (nitrification [1]; 33% of DMPSA): drastically reduces the emissions of laughing gas
N2O—N cumulative (nitrification [1]; 0.5 days after appl.): 0 μg N2O—N Bottle^1
N2O—N cumulative (nitrification [1]; 1 day after appl., listed as UI-0_NI-1): 3 μg N2O—N Bottle^1
N2O—N cumulative (nitrification [1]; 1 day after appl., listed as UI-0_NI-2): 1 μg N2O—N Bottle^1
N2O—N cumulative (nitrification [1]; 1 day after appl., listed as UI-0_NI-3): 1 μg N2O—N Bottle^1
N2O—N cumulative (nitrification [1]; 2 days after appl., listed as UI-0_NI-1): 3 μg N2O—N Bottle^1
N2O—N cumulative (nitrification [1]; 2 days after appl., listed as UI-0_NI-2): 1 μg N2O—N Bottle^1
N2O—N cumulative (nitrification [1]; 2 days after appl., listed as UI-0_NI-3): 1 μg N2O—N Bottle^1
N2O—N cumulative (nitrification [1]; 3 days after appl., listed as UI-0_NI-1): 4 μg N2O—N Bottle^1
N2O—N cumulative (nitrification [1]; 3 days after appl., listed as UI-0_NI-2): 2 μg N2O—N Bottle^1
N2O—N cumulative (nitrification [1]; 3 days after appl., listed as UI-0_NI-3): 1 μg N2O—N Bottle^1
N2O—N cumulative (nitrification [1]; 4 days after appl., listed as UI-0_NI-1): 4 μg N2O—N Bottle^1
N2O—N cumulative (nitrification [1]; 4 days after appl., listed as UI-0_NI-2): 2 μg N2O—N Bottle^1
N2O—N cumulative (nitrification [1]; 4 days after appl., listed as UI-0_NI-3): 2 μg N2O—N Bottle^1
N2O—N cumulative (nitrification [1]; 5 days after appl., listed as UI-0_NI-1): 4 μg N2O—N Bottle^1
N2O—N cumulative (nitrification [1]; 5 days after appl., listed as UI-0_NI-2): 2 μg N2O—N Bottle^1
N2O—N cumulative (nitrification [1]; 5 days after appl., listed as UI-0_NI-3): 2 μg N2O—N Bottle^1
N2O—N cumulative (nitrification [1]; 6 days after appl., listed as UI-0_NI-1): 5 μg N2O—N Bottle^1
N2O—N cumulative (nitrification [1]; 6 days after appl., listed as UI-0_NI-2): 2 μg N2O—N Bottle^1
N2O—N cumulative (nitrification [1]; 6 days after appl., listed as UI-0_NI-3): 2 μg N2O—N Bottle^1
N2O—N cumulative (nitrification [1]; 8 days after appl., listed as UI-0_NI-1): 6 μg N2O—N Bottle^1
N2O—N cumulative (nitrification [1]; 8 days after appl., listed as UI-0_NI-2): 3 μg N2O—N Bottle^1
N2O—N cumulative (nitrification [1]; 8 days after appl., listed as UI-0_NI-3): 3 μg N2O—N Bottle^1
N2O—N cumulative (nitrification [1]; 10 days after appl., listed as UI-0_NI-1): 5 μg N2O—N Bottle^1
N2O—N cumulative (nitrification [1]; 10 days after appl., listed as UI-0_NI-2): 3 μg N2O—N Bottle^1
N2O—N cumulative (nitrification [1]; 10 days after appl., listed as UI-0_NI-3): 2 μg N2O—N Bottle^1
N2O—N cumulative (nitrification [1]; 12 days after appl., listed as UI-0_NI-1): 5 μg N2O—N Bottle^1
N2O—N cumulative (nitrification [1]; 12 days after appl., listed as UI-0_NI-2): 3 μg N2O—N Bottle^1
N2O—N cumulative (nitrification [1]; 12 days after appl., listed as UI-0_NI-3): 3 μg N2O—N Bottle^1
N2O—N cumulative (nitrification [1]; 14 days after appl., listed as UI-0_NI-1): 6 μg N2O—N Bottle^1
N2O—N cumulative (nitrification [1]; 14 days after appl., listed as UI-0_NI-2): 3 μg N2O—N Bottle^1
N2O—N cumulative (nitrification [1]; 14 days after appl., listed as UI-0_NI-3): 3 μg N2O—N Bottle^1
N2O—N cumulative (nitrification [1]; 17 days after appl., listed as UI-0_NI-1): 6 μg N2O—N Bottle^1
N2O—N cumulative (nitrification [1]; 17 days after appl., listed as UI-0_NI-2): 3 μg N2O—N Bottle^1
N2O—N cumulative (nitrification [1]; 17 days after appl., listed as UI-0_NI-3): 3 μg N2O—N Bottle^1
N2O—N cumulative (nitrification [1]; 18 days after appl., listed as UI-0_NI-1): 5 μg N2O—N Bottle^1
N2O—N cumulative (nitrification [1]; 18 days after appl., listed as UI-0_NI-2): 1 μg N2O—N Bottle^1
N2O—N cumulative (nitrification [1]; 18 days after appl., listed as UI-0_NI-3): 2 μg N2O—N Bottle^1
N2O—N cumulative (nitrification [1]; 20 days after appl., listed as UI-0_NI-1): 5 μg N2O—N Bottle^1
N2O—N cumulative (nitrification [1]; 20 days after appl., listed as UI-0_NI-2): 2 μg N2O—N Bottle^1
N2O—N cumulative (nitrification [1]; 20 days after appl., listed as UI-0_NI-3): 2 μg N2O—N Bottle^1
N2O—N cumulative (nitrification [1]; 22 days after appl., listed as UI-0_NI-1): 7 μg N2O—N Bottle^1
N2O—N cumulative (nitrification [1]; 22 days after appl., listed as UI-0_NI-2): 3 μg N2O—N Bottle^1
N2O—N cumulative (nitrification [1]; 22 days after appl., listed as UI-0_NI-3): 2 μg N2O—N Bottle^1
N2O—N cumulative (nitrification [1]; 24 days after appl., listed as UI-0_NI-1): 7 μg N2O—N Bottle^1
N2O—N cumulative (nitrification [1]; 24 days after appl., listed as UI-0_NI-2): 4 μg N2O—N Bottle^1
N2O—N cumulative (nitrification [1]; 24 days after appl., listed as UI-0_NI-3): 3 μg N2O—N Bottle^1
N2O—N cumulative (nitrification [1]; 28 days after appl., listed as UI-0_NI-1): 8 μg N2O—N Bottle^1
N2O—N cumulative (nitrification [1]; 28 days after appl., listed as UI-0_NI-2): 6 μg N2O—N Bottle^1
N2O—N cumulative (nitrification [1]; 28 days after appl., listed as UI-0_NI-3): 4 μg N2O—N Bottle^1
N2O—N cumulative, % of appl. (nitrification [1]; listed as UI-0_NI-1): 0.01 % of appl.
N2O—N cumulative, % of appl. (nitrification [1]; listed as UI-0_NI-2): 0.01 % of appl.
N2O—N cumulative, % of appl. (nitrification [1]; listed as UI-0_NI-3): 0.00 % of appl.
inhibition of nitrification (ammonium results) (nitrification [2]; 33% of DMPSA, throughout the trial): sufficient to inhibit nitrification throughout the trial
percentage recovery in the form of ammonium, % of applied urea (13 mg N) (nitrification [2]; listed as UI 0 NI 1): 69%
percentage recovery in the form of ammonium, % of applied urea (13 mg N) (nitrification [2]; listed as UI 0 NI ⅓): 62%
percentage recovery in the form of ammonium, % of applied urea (13 mg N) (nitrification [2]; listed as UI 0 NI ⅔): 63%
inhibition of nitrification (nitrate results) (nitrification [3]; 33% of the DMPSA, entire period): sufficient to inhibit nitrification during the entire period
Nitrate, % of the urea applied (13 mg N) (nitrification [3]; 5 days after application, listed as UI 0 NI 1): 6%
Nitrate, % of the urea applied (13 mg N) (nitrification [3]; 5 days after application, listed as UI 0 NI ⅓): 4%
Nitrate, % of the urea applied (13 mg N) (nitrification [3]; 5 days after application, listed as UI 0 NI ⅔): 5%
Nitrate, % of the urea applied (13 mg N) (nitrification [3]; 28 days after application, listed as UI 0 NI 1): 14%
Nitrate, % of the urea applied (13 mg N) (nitrification [3]; 28 days after application, listed as UI 0 NI ⅓): 20%
Nitrate, % of the urea applied (13 mg N) (nitrification [3]; 28 days after application, listed as UI 0 NI ⅔): 17%
Ammonia emission, % of the urea applied (77 mg N) (urease; 4 days after application, listed as UI 0 NI 1): 0.7%
Ammonia emission, % of the urea applied (77 mg N) (urease; 4 days after application, listed as UI 0 NI ⅓): 0.6%
Ammonia emission, % of the urea applied (77 mg N) (urease; 4 days after application, listed as UI 0 NI ⅔): 0.9%
Ammonia emission, % of the urea applied (77 mg N) (urease; 9 days after application, listed as UI 0 NI 1): 2.2%
Ammonia emission, % of the urea applied (77 mg N) (urease; 9 days after application, listed as UI 0 NI ⅓): 3.7%
Ammonia emission, % of the urea applied (77 mg N) (urease; 9 days after application, listed as UI 0 NI ⅔): 2.4%
effect of addition on ammonia emissions (urease; addition of DMPSA): causes the ammonia emissions to rise
